Our source for the IC50 values is patent US7074789B2, “Kinase inhibitors” (Amgen Inc., priority 1999, dated 2006).

Assay type in all cases: biochemical
The target in one experiment is T1, Lck (Homo sapiens, UniProt P06239).
T1 construct: Kinases are expressed as either kinase domains or full length constructs; made in house
Kind of experiment: Kinase inhibition assay (33P transfer), Lck. To be noted: Table 3; read-out: Lck-1. A digest of the protocol: (§1)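 Activity was read as 33P incorporation, counted by liquid scintillation after a 0.5% phosphoric acid wash, into poly(Glu,Tyr) 4:1 or poly(Arg,Ser) 3:1 substrates coated on plates. Enzymes were tagged (GST or polyHis) kinase domains or full-length proteins from bacterial or insect-cell expression, sometimes with regulatory polypeptides.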

The next experiment concerns the target T2, Zap-70 (Homo sapiens, UniProt P43403).
T2 construct: Kinases are expressed as either kinase domains or full length constructs; made in house
T2 sequence (P43403 1-619): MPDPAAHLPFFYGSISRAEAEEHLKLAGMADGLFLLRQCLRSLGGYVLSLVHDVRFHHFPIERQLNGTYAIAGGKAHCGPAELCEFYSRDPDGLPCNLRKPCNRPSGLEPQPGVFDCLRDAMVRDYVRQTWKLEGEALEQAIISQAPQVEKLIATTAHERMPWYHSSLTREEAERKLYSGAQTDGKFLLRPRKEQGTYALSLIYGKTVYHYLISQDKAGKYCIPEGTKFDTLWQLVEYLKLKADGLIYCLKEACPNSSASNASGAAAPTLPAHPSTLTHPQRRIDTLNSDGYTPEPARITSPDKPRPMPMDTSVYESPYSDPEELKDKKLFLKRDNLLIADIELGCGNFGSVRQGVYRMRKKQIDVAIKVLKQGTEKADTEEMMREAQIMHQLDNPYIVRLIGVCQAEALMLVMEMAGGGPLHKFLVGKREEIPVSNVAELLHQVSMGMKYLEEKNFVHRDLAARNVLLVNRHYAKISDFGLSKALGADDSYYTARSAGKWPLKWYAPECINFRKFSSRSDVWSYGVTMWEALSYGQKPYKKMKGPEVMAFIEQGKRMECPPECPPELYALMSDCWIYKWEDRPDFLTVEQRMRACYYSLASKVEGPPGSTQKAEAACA
The experiment can be described thus: Kinase inhibition assay (33P transfer), Zap-70. To be noted: Table 3; read-out: Zap-1. A digest of the protocol: as §1

Another experiment deals with T3, Itk (Homo sapiens, UniProt Q08881).
T3 construct: Kinases are expressed as either kinase domains or full length constructs; made in house
T3 sequence (Q08881 1-620): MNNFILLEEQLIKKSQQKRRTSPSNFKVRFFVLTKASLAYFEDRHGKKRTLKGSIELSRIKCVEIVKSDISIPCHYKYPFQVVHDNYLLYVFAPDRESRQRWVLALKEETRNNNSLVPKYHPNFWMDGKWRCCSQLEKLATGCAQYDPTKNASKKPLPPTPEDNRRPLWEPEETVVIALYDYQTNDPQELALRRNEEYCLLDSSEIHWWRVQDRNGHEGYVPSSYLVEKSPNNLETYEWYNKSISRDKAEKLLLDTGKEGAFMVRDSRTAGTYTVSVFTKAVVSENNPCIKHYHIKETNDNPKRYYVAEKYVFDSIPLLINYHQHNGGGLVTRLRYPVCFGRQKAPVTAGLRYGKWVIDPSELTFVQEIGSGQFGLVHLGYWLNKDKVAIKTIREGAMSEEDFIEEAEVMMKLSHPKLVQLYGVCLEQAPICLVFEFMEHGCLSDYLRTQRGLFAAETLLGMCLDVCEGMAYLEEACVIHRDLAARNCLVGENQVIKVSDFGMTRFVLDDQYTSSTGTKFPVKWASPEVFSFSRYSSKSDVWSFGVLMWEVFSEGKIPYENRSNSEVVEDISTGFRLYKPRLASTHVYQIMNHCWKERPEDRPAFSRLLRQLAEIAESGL
The experiment can be described thus: Kinase inhibition assay (33P transfer), Itk. To be noted: Table 3; read-out: Itk-1. A digest of the protocol:
(§2)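 Kinase domains or full-length enzymes, GST- or polyHis-tagged, were expressed in E. coli or baculovirus High Five cells and affinity-purified. Transfer of 33PO4 from ATP onto plate-bound poly(Glu,Tyr) 4:1 or poly(Arg,Ser) 3:1 was counted by liquid scintillation after a 0.5% phosphoric acid wash. IC50 = concentration halving incorporation.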

The target in a further experiment is T4, EGFR (Homo sapiens, UniProt P00533).
T4 construct: Kinases are expressed as either kinase domains or full length constructs; made in house
T4 sequence (P00533 25-1210, species assumed): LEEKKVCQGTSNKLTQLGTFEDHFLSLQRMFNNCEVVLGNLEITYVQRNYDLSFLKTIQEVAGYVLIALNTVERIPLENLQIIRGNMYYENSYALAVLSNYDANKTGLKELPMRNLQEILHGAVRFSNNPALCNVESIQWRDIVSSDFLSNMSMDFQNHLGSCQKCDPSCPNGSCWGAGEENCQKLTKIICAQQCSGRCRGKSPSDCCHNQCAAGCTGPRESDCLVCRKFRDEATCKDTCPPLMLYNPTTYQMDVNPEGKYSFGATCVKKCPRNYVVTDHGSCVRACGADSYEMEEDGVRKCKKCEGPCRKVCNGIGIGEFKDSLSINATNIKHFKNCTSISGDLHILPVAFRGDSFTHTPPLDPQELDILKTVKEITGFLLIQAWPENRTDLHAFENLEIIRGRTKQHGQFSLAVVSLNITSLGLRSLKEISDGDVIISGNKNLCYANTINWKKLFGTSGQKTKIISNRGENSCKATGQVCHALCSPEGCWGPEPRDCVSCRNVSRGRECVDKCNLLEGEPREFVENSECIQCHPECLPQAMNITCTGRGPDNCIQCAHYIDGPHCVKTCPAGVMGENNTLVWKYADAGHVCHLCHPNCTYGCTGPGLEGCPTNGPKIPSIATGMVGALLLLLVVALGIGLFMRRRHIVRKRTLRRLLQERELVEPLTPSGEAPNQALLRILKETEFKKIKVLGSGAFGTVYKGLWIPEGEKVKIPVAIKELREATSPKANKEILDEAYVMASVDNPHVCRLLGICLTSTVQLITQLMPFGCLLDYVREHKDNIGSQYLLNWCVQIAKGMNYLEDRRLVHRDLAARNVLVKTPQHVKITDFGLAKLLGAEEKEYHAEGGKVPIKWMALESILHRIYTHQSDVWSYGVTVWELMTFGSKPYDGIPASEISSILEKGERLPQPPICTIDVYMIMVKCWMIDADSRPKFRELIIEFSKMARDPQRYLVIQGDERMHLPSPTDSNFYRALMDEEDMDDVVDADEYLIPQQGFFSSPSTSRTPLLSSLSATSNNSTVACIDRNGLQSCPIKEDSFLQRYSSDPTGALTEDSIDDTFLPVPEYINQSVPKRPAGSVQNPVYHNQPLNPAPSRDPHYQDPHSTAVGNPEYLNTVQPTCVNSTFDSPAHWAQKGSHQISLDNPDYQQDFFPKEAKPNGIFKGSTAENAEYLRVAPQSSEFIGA
The experiment can be described thus: Kinase inhibition assay (33P transfer), EGFR. To be noted: Table 2, kinase inhibition class; read-out: EGFR-1. A digest of the protocol:
as §2

The next experiment deals with T5, Kdr (Homo sapiens, UniProt P35968).
T5 construct: Kinases are expressed as either kinase domains or full length constructs; made in house
T5 sequence (P35968 20-1356, species assumed): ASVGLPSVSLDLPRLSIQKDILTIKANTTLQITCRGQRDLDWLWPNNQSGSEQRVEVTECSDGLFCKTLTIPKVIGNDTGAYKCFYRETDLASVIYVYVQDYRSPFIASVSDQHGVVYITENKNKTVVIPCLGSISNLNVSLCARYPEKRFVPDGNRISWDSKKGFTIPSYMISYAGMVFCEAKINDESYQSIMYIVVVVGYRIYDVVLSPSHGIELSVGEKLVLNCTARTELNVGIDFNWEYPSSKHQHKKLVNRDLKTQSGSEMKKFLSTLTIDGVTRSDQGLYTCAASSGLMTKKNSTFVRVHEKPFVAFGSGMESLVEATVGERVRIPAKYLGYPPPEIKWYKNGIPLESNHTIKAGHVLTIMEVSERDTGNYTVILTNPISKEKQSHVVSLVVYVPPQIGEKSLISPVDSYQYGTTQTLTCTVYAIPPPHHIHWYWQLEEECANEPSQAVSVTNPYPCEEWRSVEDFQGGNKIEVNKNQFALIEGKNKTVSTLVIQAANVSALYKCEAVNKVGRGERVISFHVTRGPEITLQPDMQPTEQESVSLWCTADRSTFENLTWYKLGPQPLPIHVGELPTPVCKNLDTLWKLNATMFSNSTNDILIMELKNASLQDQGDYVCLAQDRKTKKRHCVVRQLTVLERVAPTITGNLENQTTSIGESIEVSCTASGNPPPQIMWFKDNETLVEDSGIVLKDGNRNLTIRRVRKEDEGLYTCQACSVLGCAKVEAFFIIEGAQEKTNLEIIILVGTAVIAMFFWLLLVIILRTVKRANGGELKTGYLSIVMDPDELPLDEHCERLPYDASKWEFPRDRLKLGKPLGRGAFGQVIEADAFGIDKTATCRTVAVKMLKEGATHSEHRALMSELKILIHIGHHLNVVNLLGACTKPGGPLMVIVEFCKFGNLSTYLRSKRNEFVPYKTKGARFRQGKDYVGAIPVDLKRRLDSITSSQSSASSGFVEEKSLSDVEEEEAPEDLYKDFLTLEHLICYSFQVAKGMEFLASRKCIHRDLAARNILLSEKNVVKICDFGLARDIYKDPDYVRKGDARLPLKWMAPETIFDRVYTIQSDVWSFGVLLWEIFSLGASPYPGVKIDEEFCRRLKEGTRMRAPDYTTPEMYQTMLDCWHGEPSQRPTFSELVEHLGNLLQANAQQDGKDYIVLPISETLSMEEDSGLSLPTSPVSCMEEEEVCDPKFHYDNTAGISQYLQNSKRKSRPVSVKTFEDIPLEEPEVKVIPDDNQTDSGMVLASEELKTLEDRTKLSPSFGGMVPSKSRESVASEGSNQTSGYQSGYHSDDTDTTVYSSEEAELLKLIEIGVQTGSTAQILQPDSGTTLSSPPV
Kind of experiment: Kinase inhibition assay (33P transfer), Kdr. To be noted: Table 3; read-out: KDR-1. A digest of the protocol: as §1

The target of another experiment is T6, Tek (Homo sapiens, UniProt Q02763).
T6 construct: Kinases are expressed as either kinase domains or full length constructs; made in house
The experiment can be described thus: Kinase inhibition assay (33P transfer), Tek. To be noted: read-out: Tek-1. In a few lines: as §2

The target in the next experiment is T7, c-Met (Homo sapiens, UniProt P08581).
T7 construct: Kinases are expressed as either kinase domains or full length constructs; made in house
T7 sequence (P08581 25-1390): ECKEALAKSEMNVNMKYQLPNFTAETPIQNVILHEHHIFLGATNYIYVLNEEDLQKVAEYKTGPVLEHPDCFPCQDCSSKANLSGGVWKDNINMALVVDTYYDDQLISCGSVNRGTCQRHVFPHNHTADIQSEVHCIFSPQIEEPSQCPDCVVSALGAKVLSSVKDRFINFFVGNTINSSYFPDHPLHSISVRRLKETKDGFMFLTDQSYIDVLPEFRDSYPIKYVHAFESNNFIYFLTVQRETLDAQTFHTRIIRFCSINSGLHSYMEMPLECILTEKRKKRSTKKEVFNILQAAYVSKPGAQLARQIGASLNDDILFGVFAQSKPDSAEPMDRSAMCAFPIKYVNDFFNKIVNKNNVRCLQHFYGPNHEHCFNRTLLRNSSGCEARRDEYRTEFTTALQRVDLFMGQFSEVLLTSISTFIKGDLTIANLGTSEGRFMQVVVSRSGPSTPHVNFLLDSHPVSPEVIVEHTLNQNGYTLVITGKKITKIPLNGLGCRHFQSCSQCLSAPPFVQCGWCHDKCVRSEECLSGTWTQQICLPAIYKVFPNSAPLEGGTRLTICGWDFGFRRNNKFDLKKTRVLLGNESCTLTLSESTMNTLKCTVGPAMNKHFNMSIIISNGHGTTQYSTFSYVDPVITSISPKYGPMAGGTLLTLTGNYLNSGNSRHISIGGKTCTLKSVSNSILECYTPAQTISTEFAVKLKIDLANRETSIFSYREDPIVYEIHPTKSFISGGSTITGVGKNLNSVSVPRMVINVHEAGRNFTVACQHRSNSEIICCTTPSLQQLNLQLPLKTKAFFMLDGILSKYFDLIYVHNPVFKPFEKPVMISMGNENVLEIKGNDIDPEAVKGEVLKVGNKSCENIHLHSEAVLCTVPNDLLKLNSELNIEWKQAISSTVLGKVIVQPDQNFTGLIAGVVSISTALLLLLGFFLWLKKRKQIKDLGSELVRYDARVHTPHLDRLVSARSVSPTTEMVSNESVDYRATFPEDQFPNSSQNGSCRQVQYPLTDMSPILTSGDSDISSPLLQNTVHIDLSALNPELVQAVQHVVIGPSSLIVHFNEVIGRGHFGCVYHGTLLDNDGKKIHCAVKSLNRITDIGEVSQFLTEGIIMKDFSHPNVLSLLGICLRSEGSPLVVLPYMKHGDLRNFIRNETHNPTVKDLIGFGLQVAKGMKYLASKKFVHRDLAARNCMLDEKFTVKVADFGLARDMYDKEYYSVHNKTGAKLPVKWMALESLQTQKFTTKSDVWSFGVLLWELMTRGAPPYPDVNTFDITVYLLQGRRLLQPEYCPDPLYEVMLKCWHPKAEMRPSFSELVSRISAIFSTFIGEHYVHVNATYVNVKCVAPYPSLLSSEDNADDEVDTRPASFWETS
The experiment can be described thus: Kinase inhibition assay (33P transfer), c-Met. To be noted: Table 2, kinase inhibition class; read-out: Met-1. In a few lines:
as §2

In another experiment the target is T8, AKT (Homo sapiens, UniProt Q9Y243).
T8 construct: Kinases are expressed as either kinase domains or full length constructs; made in house
T8 sequence (Q9Y243 whole entry, the tested form may be a part): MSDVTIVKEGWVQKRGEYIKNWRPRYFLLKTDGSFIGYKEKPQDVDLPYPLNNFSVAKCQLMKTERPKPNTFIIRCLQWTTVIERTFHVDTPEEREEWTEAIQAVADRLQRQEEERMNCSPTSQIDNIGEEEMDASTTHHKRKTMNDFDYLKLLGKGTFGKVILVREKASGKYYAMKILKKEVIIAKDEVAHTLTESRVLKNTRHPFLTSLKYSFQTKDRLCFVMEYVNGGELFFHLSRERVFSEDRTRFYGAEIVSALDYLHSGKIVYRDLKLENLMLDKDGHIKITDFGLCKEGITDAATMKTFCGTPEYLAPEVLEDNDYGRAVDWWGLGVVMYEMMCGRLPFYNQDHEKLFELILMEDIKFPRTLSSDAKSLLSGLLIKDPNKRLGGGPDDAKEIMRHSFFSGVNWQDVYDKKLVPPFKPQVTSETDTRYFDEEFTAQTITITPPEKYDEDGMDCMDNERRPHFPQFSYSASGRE
The experiment can be described thus: Kinase inhibition assay (33P transfer), AKT. To be noted: Table 2, kinase inhibition class; read-out: AKT3-1. A digest of the protocol: as §1

The target in the next experiment is T9, IGFR-1 (Homo sapiens, UniProt P08069).
T9 construct: Kinases are expressed as either kinase domains or full length constructs; made in house
Kind of experiment: Kinase inhibition assay (33P transfer), IGFR-1. To be noted: Table 2, kinase inhibition class.

Another experiment deals with T10, EPHB4 (Homo sapiens, UniProt P54760).
T10 construct: Kinases are expressed as either kinase domains or full length constructs; made in house
T10 sequence (P54760 16-987): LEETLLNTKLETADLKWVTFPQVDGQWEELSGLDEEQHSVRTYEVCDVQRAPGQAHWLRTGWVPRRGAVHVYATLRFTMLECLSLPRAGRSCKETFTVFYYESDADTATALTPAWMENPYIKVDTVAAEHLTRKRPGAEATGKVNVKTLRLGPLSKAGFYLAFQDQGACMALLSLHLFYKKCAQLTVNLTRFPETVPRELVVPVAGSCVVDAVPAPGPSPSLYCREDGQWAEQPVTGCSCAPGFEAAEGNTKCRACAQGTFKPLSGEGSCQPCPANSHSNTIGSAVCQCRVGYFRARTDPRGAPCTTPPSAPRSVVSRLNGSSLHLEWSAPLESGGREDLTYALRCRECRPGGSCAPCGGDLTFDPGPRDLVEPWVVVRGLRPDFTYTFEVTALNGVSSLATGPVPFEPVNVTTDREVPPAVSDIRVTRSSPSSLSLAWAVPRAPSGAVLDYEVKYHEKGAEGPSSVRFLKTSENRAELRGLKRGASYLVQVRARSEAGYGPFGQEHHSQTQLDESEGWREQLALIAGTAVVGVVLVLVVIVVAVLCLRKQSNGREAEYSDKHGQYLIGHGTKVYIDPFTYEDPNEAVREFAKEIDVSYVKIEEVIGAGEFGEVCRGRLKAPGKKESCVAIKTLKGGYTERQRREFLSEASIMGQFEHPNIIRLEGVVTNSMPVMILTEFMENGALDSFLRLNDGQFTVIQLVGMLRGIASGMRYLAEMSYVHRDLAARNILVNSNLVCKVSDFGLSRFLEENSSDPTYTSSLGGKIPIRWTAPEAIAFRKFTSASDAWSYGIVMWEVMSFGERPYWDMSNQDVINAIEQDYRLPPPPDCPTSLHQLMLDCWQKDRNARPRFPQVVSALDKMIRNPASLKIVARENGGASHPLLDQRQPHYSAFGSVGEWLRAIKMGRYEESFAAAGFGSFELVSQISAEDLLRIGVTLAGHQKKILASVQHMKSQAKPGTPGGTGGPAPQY
Kind of experiment: Kinase inhibition assay (33P transfer), EPHB4. To be noted: read-out: EPHB4-1.

T1 sequence (P06239 whole entry, species assumed, the tested form may be a part): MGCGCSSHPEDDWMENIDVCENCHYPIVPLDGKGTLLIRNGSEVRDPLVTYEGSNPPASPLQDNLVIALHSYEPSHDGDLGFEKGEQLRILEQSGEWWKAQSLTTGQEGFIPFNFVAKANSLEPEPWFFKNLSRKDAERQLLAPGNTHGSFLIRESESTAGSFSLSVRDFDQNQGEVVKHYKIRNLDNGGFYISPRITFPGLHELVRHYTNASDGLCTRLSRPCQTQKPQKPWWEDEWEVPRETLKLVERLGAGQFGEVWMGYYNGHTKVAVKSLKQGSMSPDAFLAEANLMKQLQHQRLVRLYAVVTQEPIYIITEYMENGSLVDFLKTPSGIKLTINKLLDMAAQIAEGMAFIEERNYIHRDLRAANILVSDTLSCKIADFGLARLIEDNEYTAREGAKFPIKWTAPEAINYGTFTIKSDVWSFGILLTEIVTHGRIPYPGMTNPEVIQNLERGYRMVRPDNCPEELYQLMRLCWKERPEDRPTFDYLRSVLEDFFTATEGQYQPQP

Take `COc1ccc(Oc2ncnc(Nc3cc(OC)c(OC)c(OC)c3)n2)cc1` [Compound 174]: the IC50 is over 11.7 µM at Lck; over 11.7 µM on Zap-70; over 11.7 µM at Itk; 6.24 to 9.11 µM on EGFR; under 1.04 µM at Kdr; over 11.7 µM on Tek. Besides, the IC50 on c-Met, on AKT, against IGFR-1 and at EPHB4 was over 11.7 µM each time.

As to `COc1cc(Nc2ncnc(Nc3[nH]ncc3-c3cccs3)n2)cc(OC)c1OC` [Compound 368], the IC50 on Lck is 8.23 to 10.6 µM; on Zap-70 it was over 10.6 µM; at Itk, over 10.6 µM; at EGFR, over 10.6 µM; on Kdr it was over 10.6 µM; on Tek, over 10.6 µM. Also, the IC50 on c-Met, at AKT, on IGFR-1 and on EPHB4 was over 10.6 µM each time.

Consider `COc1cc(Nc2ncnc(NN3CCOCC3)n2)cc(OC)c1OC` [Compound 103], for which the IC50 on Lck, at Zap-70, on Itk, on EGFR, on Kdr and on Tek was over 12.4 µM in each case. Further, the IC50 on c-Met was over 12.4 µM; on AKT, 1.1 to 6.62 µM; against IGFR-1 it was 6.62 to 9.66 µM; on EPHB4 it was 1.1 to 6.62 µM.

As to `COc1cc(Nc2ncnc(-c3ccc(F)cc3)n2)cc(OC)c1OC` [Compound 222], the IC50 on Lck was over 12.6 µM; on Zap-70, over 12.6 µM; at Itk, over 12.6 µM; at EGFR, over 12.6 µM; at Kdr it was 9.82 to 12.6 µM; on Tek, over 12.6 µM. Moreover, the IC50 at c-Met, on AKT, at IGFR-1 and on EPHB4 was over 12.6 µM throughout.

Consider `COc1cc(Nc2ncnc(Nc3cccc(Oc4ccccc4)c3)n2)cc(OC)c1OC` [Compound 105], for which the IC50 on Lck was over 10.1 µM; on Zap-70, over 10.1 µM; at Itk, over 10.1 µM; at EGFR, 0.898 to 5.39 µM; on Kdr it was 0.898 to 5.39 µM; on Tek, over 10.1 µM. Also, the IC50 on c-Met was 0.898 to 5.39 µM; at AKT, over 10.1 µM; against IGFR-1, over 10.1 µM; on EPHB4 it was over 10.1 µM.

Consider `COc1cc(Nc2ncnc(N(Cc3ccccc3)c3nc4ccccc4[nH]3)n2)cc(OC)c1OC` [Compound 373], for which the IC50 at Lck was over 9.31 µM; at Zap-70, over 9.31 µM; on Itk, over 9.31 µM; on EGFR, 4.96 to 7.24 µM; at Kdr it was 0.827 to 4.96 µM; on Tek, 0.827 to 4.96 µM. In addition, the IC50 on c-Met, on AKT, against IGFR-1 and at EPHB4 was over 9.31 µM in each case.

Turning to `COc1ccc(Nc2ncnc(N(CC(=O)OC(C)(C)C)c3ccc(Cl)cc3)n2)cc1OC` [Compound 973], the IC50 was 5.09 to 7.42 µM on Lck; over 9.54 µM on Zap-70; over 9.54 µM on Itk; 0.848 to 5.09 µM at EGFR; over 9.54 µM at Kdr; over 9.54 µM on Tek. For the same molecule, the IC50 at c-Met is over 9.54 µM; at AKT, over 9.54 µM; on IGFR-1, over 9.54 µM; on EPHB4 it was 5.09 to 7.42 µM.

For `COc1cc(Nc2ncnc(Nc3ccc(N(C)C(C)=O)cc3)n2)cc(OC)c1OC` [Compound 81], the IC50 is 0.942 to 5.65 µM at Lck; over 10.6 µM at Zap-70; over 10.6 µM on Itk; over 10.6 µM on EGFR; 0.942 to 5.65 µM at Kdr; over 10.6 µM on Tek. Further, the IC50 on c-Met, at AKT, against IGFR-1 and at EPHB4 was over 10.6 µM in each case.

Turning to `COc1cc(Nc2ncnc(Nc3ccc(F)cc3)n2)cc(OC)c1OC` [Compound 303], the IC50 at Lck was 1.08 to 6.46 µM; on Zap-70, over 12.1 µM; at Itk it was over 12.1 µM; on EGFR, 1.08 to 6.46 µM; at Kdr it was 1.08 to 6.46 µM; at Tek, 1.08 to 6.46 µM. Besides, the IC50 at c-Met is over 12.1 µM; on AKT it was over 12.1 µM; at IGFR-1 it was 1.08 to 6.46 µM; at EPHB4, 9.42 to 12.1 µM.

As to `COc1cc(NC(=O)Nc2ncnc(Nc3cc(OC)c(OC)c(OC)c3)n2)cc(OC)c1` [Compound 22], the IC50 on Lck was over 9.86 µM; at Zap-70, over 9.86 µM; at Itk it was over 9.86 µM; on EGFR, over 9.86 µM; at Kdr, over 9.86 µM; on Tek it was 7.67 to 9.86 µM. Besides, the IC50 on c-Met, at AKT, against IGFR-1 and on EPHB4 was over 9.86 µM each time.

On to `COc1cc(Nc2ncnc(Nc3c(C)n(C)n(-c4ccccc4)c3=O)n2)cc(OC)c1OC` [Compound 256], for which the IC50 on Lck is over 9.71 µM; at Zap-70 it was over 9.71 µM; on Itk, over 9.71 µM; on EGFR it was over 9.71 µM; at Kdr it was 7.55 to 9.71 µM; on Tek, over 9.71 µM. The IC50 at c-Met, on AKT, on IGFR-1 and at EPHB4 was over 9.71 µM throughout.
